Experimental data published in PubChem BioAssay AID248 (DTP/NCI, 2004).
“And” between values parts separate entries of the source, which are not always exact repeats. Identical values can stand only once. Toxic doses and inconclusive results are not listed. Cut-off read from the data, not from the text of the source: active = T/C of 150% or more; inactive = T/C below 125%.

Tested on: L1210 leukemia ip in BDF1 mice, survival T/C
Experiment: NCI In Vivo Anticancer Drug Screen. Data for tumor model L1210 Leukemia (intraperitoneal) in B6D2F1 (BDF1) mice
Details: endpoint: mean survival time, higher = longer survival
Method in brief: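 In this screen, tumor-bearing mice given compound are compared to those given vehicle, and their survival values are reported as a treated-to-control quotient.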

[1] = dose: 100.0 mg/kg/injection, schedule: Q04DX003 (ip), vehicle: Klucel (hydroxypropylcellulose) (HPC)
[2] = dose: 200.0 mg/kg/injection, schedule: Q04DX003 (ip), vehicle: Klucel (hydroxypropylcellulose) (HPC)
[3] = dose: 100.0 mg/kg/injection, schedule: Q01DX001 (ip), vehicle: Klucel (hydroxypropylcellulose) (HPC)
[4] = dose: 200.0 mg/kg/injection, schedule: Q01DX001 (ip), vehicle: Klucel (hydroxypropylcellulose) (HPC)
[5] = dose: 100.0 mg/kg/injection, schedule: Q01DX001 (ip), vehicle: saline
[6] = dose: 200.0 mg/kg/injection, schedule: Q01DX001 (ip), vehicle: saline
[7] = dose: 400.0 mg/kg/injection, schedule: Q01DX001 (ip), vehicle: saline

Measured: T/C

O=C(Nc1ccccc1C(F)(F)F)OCc1ccco1
inactive: dose: 100.0 mg/kg/injection, schedule: Q01DX001 (ip), vehicle: gum acacia 102 % of control and 91 % of control | dose: 100.0 mg/kg/injection, schedule: Q01DX009 (ip), vehicle: gum acacia 100 % of control | dose: 100.0 mg/kg/injection, schedule: Q04DX002 (ip), vehicle: gum acacia 95 % of control and 101 % of control | dose: 100.0 mg/kg/injection, schedule: Q04DX003 (ip), vehicle: gum acacia 94 % of control and 99 % of control | dose: 200.0 mg/kg/injection, schedule: Q01DX001 (ip), vehicle: gum acacia 98 % of control and 105 % of control | dose: 200.0 mg/kg/injection, schedule: Q01DX009 (ip), vehicle: gum acacia 97 % of control | dose: 200.0 mg/kg/injection, schedule: Q04DX002 (ip), vehicle: gum acacia 99 % of control and 108 % of control | dose: 200.0 mg/kg/injection, schedule: Q04DX003 (ip), vehicle: gum acacia 96 % of control and 92 % of control | dose: 400.0 mg/kg/injection, schedule: Q01DX001 (ip), vehicle: gum acacia 94 % of control and 95 % of control | dose: 400.0 mg/kg/injection, schedule: Q01DX009 (ip), vehicle: gum acacia 105 % of control | dose: 400.0 mg/kg/injection, schedule: Q04DX002 (ip), vehicle: gum acacia 99 % of control and 101 % of control | dose: 400.0 mg/kg/injection, schedule: Q04DX003 (ip), vehicle: gum acacia 108 % of control and 92 % of control

COc1cc(C(=O)O)ccc1N
inactive: dose: 100.0 mg/kg/injection, schedule: Q04DX003 (ip), vehicle: saline with Tween-80 102 % of control | dose: 200.0 mg/kg/injection, schedule: Q04DX003 (ip), vehicle: saline with Tween-80 104 % of control | dose: 400.0 mg/kg/injection, schedule: Q04DX003 (ip), vehicle: saline with Tween-80 102 % of control

COc1cccc(OC)c1C#N
inactive: dose: 50.0 mg/kg/injection, schedule: Q01DX009 (ip), vehicle: Klucel (hydroxypropylcellulose) (HPC) 95 % of control | dose: 100.0 mg/kg/injection, schedule: Q01DX009 (ip), vehicle: Klucel (hydroxypropylcellulose) (HPC) 96 % of control | [1] 98 % of control | dose: 200.0 mg/kg/injection, schedule: Q01DX009 (ip), vehicle: Klucel (hydroxypropylcellulose) (HPC) 95 % of control | [2] 98 % of control

CCCCCOC(=O)c1ccccc1C(=O)OCCCCC
inactive: dose: 50.0 mg/kg/injection, schedule: Q01DX001 (ip), vehicle: Klucel (hydroxypropylcellulose) (HPC) 103 % of control | [3] 110 % of control | [4] 104 % of control

O=C1OCC/C1=C/OS(=O)(=O)C(F)(F)F
inactive: dose: 12.5 mg/kg/injection, schedule: Q01DX009 (ip), vehicle: water 105 % of control | dose: 25.0 mg/kg/injection, schedule: Q01DX009 (ip), vehicle: water 106 % of control | dose: 50.0 mg/kg/injection, schedule: Q01DX009 (ip), vehicle: water 105 % of control | dose: 100.0 mg/kg/injection, schedule: Q01DX009 (ip), vehicle: water 104 % of control

C=CC(OC(C)=O)OC(C)=O
inactive: dose: 2.8 mg/kg/injection, schedule: Q01DX Z (ip), vehicle: carboxymethylcellulose (CMC) 94 % of control | dose: 4.2 mg/kg/injection, schedule: Q01DX Z (ip), vehicle: carboxymethylcellulose (CMC) 95 % of control | dose: 6.2 mg/kg/injection, schedule: Q01DX Z (ip), vehicle: carboxymethylcellulose (CMC) 93 % of control | dose: 6.25 mg/kg/injection, schedule: Q01DX009 (ip), vehicle: saline with Tween-80 91 % of control | dose: 6.25 mg/kg/injection, schedule: Q01DX Z (ip), vehicle: carboxymethylcellulose (CMC) 89 % of control | dose: 9.4 mg/kg/injection, schedule: Q01DX Z (ip), vehicle: carboxymethylcellulose (CMC) 98 % of control and 111 % of control | dose: 12.5 mg/kg/injection, schedule: Q01DX009 (ip), vehicle: saline with Tween-80 104 % of control | dose: 12.5 mg/kg/injection, schedule: Q04DX003 (ip), vehicle: saline with Tween-80 103 % of control | dose: 25.0 mg/kg/injection, schedule: Q01DX009 (ip), vehicle: saline with Tween-80 110 % of control | dose: 25.0 mg/kg/injection, schedule: Q04DX003 (ip), vehicle: saline with Tween-80 111 % of control

Nc1cncc2ncc(-c3ccc(Cl)c(Cl)c3)nc12
inactive: dose: 50.0 mg/kg/injection, schedule: Q01DX001 (ip), vehicle: other 98 % of control | dose: 100.0 mg/kg/injection, schedule: Q01DX001 (ip), vehicle: other 98 % of control | dose: 200.0 mg/kg/injection, schedule: Q01DX001 (ip), vehicle: other 98 % of control | dose: 400.0 mg/kg/injection, schedule: Q01DX001 (ip), vehicle: other 100 % of control

CCCCOB(CI)OCCCC
inactive: dose: 6.25 mg/kg/injection, schedule: Q01DX009 (ip), vehicle: saline sonified 96 % of control | dose: 6.25 mg/kg/injection, schedule: Q04DX003 (ip), vehicle: saline sonified 94 % of control | dose: 12.5 mg/kg/injection, schedule: Q01DX009 (ip), vehicle: saline sonified 100 % of control | dose: 12.5 mg/kg/injection, schedule: Q04DX003 (ip), vehicle: saline sonified 92 % of control | dose: 25.0 mg/kg/injection, schedule: Q01DX009 (ip), vehicle: saline sonified 104 % of control | dose: 25.0 mg/kg/injection, schedule: Q04DX003 (ip), vehicle: saline sonified 105 % of control

C1CCC(CCC(CCC2CCCCC2)CCC2CCCCC2)CC1
inactive: [3] 89 % of control | [4] 91 % of control | dose: 400.0 mg/kg/injection, schedule: Q01DX001 (ip), vehicle: Klucel (hydroxypropylcellulose) (HPC) 91 % of control

O/N=C1\c2ccccc2-c2ccc(Cl)cc21
inactive: dose: 100.0 mg/kg/injection, schedule: Q01DX001 (ip), vehicle: carboxymethylcellulose (CMC) 95 % of control | dose: 200.0 mg/kg/injection, schedule: Q01DX001 (ip), vehicle: carboxymethylcellulose (CMC) 111 % of control | dose: 400.0 mg/kg/injection, schedule: Q01DX001 (ip), vehicle: carboxymethylcellulose (CMC) 97 % of control

CCCCCCCC/C=C\CCCCCCCC(=O)OCCCCCCCCCCCCCCC
inactive: dose: 100.0 mg/kg/injection, schedule: Q01DX009 (ip), vehicle: other 96 % of control | dose: 200.0 mg/kg/injection, schedule: Q01DX009 (ip), vehicle: other 96 % of control | dose: 400.0 mg/kg/injection, schedule: Q01DX009 (ip), vehicle: other 96 % of control

O=C(Nc1nccs1)C(F)(F)F
inactive: [5] 109 % of control | [6] 109 % of control | [7] 102 % of control

CCOC(=O)CCCCCCCCCCOc1ccc(C(C)=O)cc1
inactive: [1] 94 % of control | [2] 100 % of control | dose: 400.0 mg/kg/injection, schedule: Q04DX003 (ip), vehicle: Klucel (hydroxypropylcellulose) (HPC) 97 % of control

COCC(O)C(OC)C(OC)C(N)C=O (configuration not stated)
inactive: [5] 101 % of control | [6] 101 % of control | [7] 107 % of control

C1CN2CCN1CC2
inactive: dose: 37.5 mg/kg/injection, schedule: Q01DX009 (ip), vehicle: Klucel (hydroxypropylcellulose) (HPC) 91 % of control | dose: 75.0 mg/kg/injection, schedule: Q01DX009 (ip), vehicle: Klucel (hydroxypropylcellulose) (HPC) 91 % of control | dose: 150.0 mg/kg/injection, schedule: Q01DX009 (ip), vehicle: Klucel (hydroxypropylcellulose) (HPC) 89 % of control | dose: 300.0 mg/kg/injection, schedule: Q01DX009 (ip), vehicle: Klucel (hydroxypropylcellulose) (HPC) 94 % of control

O=C(O)/C=N/OCc1cc2c(cc1Cl)OCO2
inactive: dose: 100.0 mg/kg/injection, schedule: Q04DX003 (ip), vehicle: saline sonified 95 % of control | dose: 200.0 mg/kg/injection, schedule: Q04DX003 (ip), vehicle: saline sonified 92 % of control | dose: 400.0 mg/kg/injection, schedule: Q04DX003 (ip), vehicle: saline sonified 94 % of control
